Reference: PubChem BioAssay (NCI)
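Five compound concentrations were applied to cells in 96-well plates for 48 hours; endpoints were derived by simple linear interpolation of the resulting dose-response curve. Abbreviation: GI50, concentration required for 50% inhibition of growth. TGI denotes the concentration required for complete inhibition of growth.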

Columns and labels:
Assay in all cases: NCI-60 cell line screen, 48 h
M14 melanoma = system: M14 melanoma
SK-MEL-2 melanoma = system: SK-MEL-2 melanoma
SR leukemia = system: SR leukemia
NCI-H522 lung = system: NCI-H522 lung
OVCAR-8 ovarian = system: OVCAR-8 ovarian
MOLT-4 leukemia = system: MOLT-4 leukemia
SN12C renal = system: SN12C renal
IGROV1 ovarian = system: IGROV1 ovarian
MALME-3M melanoma = system: MALME-3M melanoma
KM12 colon = system: KM12 colon
HCT-116 colon = system: HCT-116 colon
SF-268 CNS = system: SF-268 CNS
A498 renal = system: A498 renal
EKVX NSCLC = system: EKVX NSCLC
SF-295 CNS = system: SF-295 CNS
SNB-19 CNS = system: SNB-19 CNS
UACC-257 melanoma = system: UACC-257 melanoma
TK-10 renal = system: TK-10 renal
SK-MEL-28 melanoma = system: SK-MEL-28 melanoma
OVCAR-3 ovarian = system: OVCAR-3 ovarian
SW-620 colon = system: SW-620 colon
BT-549 breast = system: BT-549 breast
OVCAR-4 ovarian = system: OVCAR-4 ovarian
COLO 205 colon = system: COLO 205 colon
OVCAR-5 ovarian = system: OVCAR-5 ovarian
RPMI-8226 leukemia = system: RPMI-8226 leukemia
PC-3 prostate = system: PC-3 prostate
NCI-H460 lung = system: NCI-H460 lung
SK-MEL-5 melanoma = system: SK-MEL-5 melanoma
ACHN renal = system: ACHN renal
CAKI-1 renal = system: CAKI-1 renal
MDA-MB-231 breast = system: MDA-MB-231 breast
HL-60(TB) leukemia = system: HL-60(TB) leukemia
RXF 393 renal = system: RXF 393 renal
NCI-H226 lung = system: NCI-H226 lung
SF-539 CNS = system: SF-539 CNS
SK-OV-3 ovarian = system: SK-OV-3 ovarian
K-562 leukemia = system: K-562 leukemia
HT29 colon = system: HT29 colon
MDA-MB-468 breast = system: MDA-MB-468 breast
CCRF-CEM leukemia = system: CCRF-CEM leukemia
HOP-62 NSCLC = system: HOP-62 NSCLC
HOP-92 NSCLC = system: HOP-92 NSCLC
NCI-H23 lung = system: NCI-H23 lung
DU-145 prostate = system: DU-145 prostate
HCC-2998 colon = system: HCC-2998 colon
T-47D breast = system: T-47D breast
UO-31 renal = system: UO-31 renal
786-0 renal = system: 786-0 renal
UACC-62 melanoma = system: UACC-62 melanoma
MDA-MB-435 = system: MDA-MB-435
NCI/ADR-RES ovarian = system: NCI/ADR-RES ovarian
U251 CNS = system: U251 CNS
HCT-15 colon = system: HCT-15 colon
SNB-75 CNS = system: SNB-75 CNS
A549 NSCLC = system: A549 NSCLC
MCF7 breast = system: MCF7 breast
HS 578T breast = system: HS 578T breast

Cn1cc(-c2cc(N)n3nc(-c4cn(C)c5ccccc45)cc3n2)c2cc(F)ccc21
GI50 (M14 melanoma): 1.83 µM | TGI (M14 melanoma): 3.52 µM | GI50 (SK-MEL-2 melanoma): 1.82 µM | TGI (SK-MEL-2 melanoma): 3.63 µM | GI50 (SR leukemia): 2.16 µM | TGI (SR leukemia): 7.54 µM | GI50 (NCI-H522 lung): 1.65 µM | TGI (NCI-H522 lung): 3.42 µM | GI50 (OVCAR-8 ovarian): 1.97 µM | TGI (OVCAR-8 ovarian): 3.95 µM | GI50 (MOLT-4 leukemia): 2.44 µM | TGI (MOLT-4 leukemia): 7.25 µM | GI50 (SN12C renal): 1.71 µM | TGI (SN12C renal): 3.14 µM | GI50 (IGROV1 ovarian): 2.19 µM | TGI (IGROV1 ovarian): 5.18 µM | GI50 (MALME-3M melanoma): 1.72 µM | TGI (MALME-3M melanoma): 3.14 µM | GI50 (KM12 colon): 2.47 µM | TGI (KM12 colon): 6.13 µM | GI50 (HCT-116 colon): 1.76 µM | TGI (HCT-116 colon): 3.18 µM | GI50 (SF-268 CNS): 3.35 µM | TGI (SF-268 CNS): 13.4 µM | GI50 (A498 renal): 14.6 µM | TGI (A498 renal): 29 µM | GI50 (EKVX NSCLC): 3.02 µM | TGI (EKVX NSCLC): 15.7 µM | GI50 (SF-295 CNS): 1.78 µM | TGI (SF-295 CNS): 3.68 µM | GI50 (SNB-19 CNS): 3.09 µM | TGI (SNB-19 CNS): 12.7 µM | GI50 (UACC-257 melanoma): 1.75 µM | TGI (UACC-257 melanoma): 3.39 µM | GI50 (TK-10 renal): 2.01 µM | TGI (TK-10 renal): 8.26 µM | GI50 (SK-MEL-28 melanoma): 1.78 µM | TGI (SK-MEL-28 melanoma): 3.44 µM | GI50 (OVCAR-3 ovarian): 2.69 µM | TGI (OVCAR-3 ovarian): 6.53 µM | GI50 (SW-620 colon): 2.01 µM | TGI (SW-620 colon): 4.05 µM | GI50 (BT-549 breast): 10.5 µM | TGI (BT-549 breast): 25.3 µM | GI50 (OVCAR-4 ovarian): 2.49 µM | TGI (OVCAR-4 ovarian): 6.55 µM | GI50 (COLO 205 colon): 1.89 µM | TGI (COLO 205 colon): 3.57 µM | GI50 (OVCAR-5 ovarian): 2.37 µM | TGI (OVCAR-5 ovarian): 6.49 µM | GI50 (RPMI-8226 leukemia): 2.93 µM | TGI (RPMI-8226 leukemia): 8.56 µM | GI50 (PC-3 prostate): 2.2 µM | TGI (PC-3 prostate): 5.54 µM | GI50 (NCI-H460 lung): 2.02 µM | TGI (NCI-H460 lung): 4.2 µM | GI50 (SK-MEL-5 melanoma): 1.87 µM | TGI (SK-MEL-5 melanoma): 3.89 µM | GI50 (ACHN renal): 1.77 µM | TGI (ACHN renal): 3.45 µM | GI50 (CAKI-1 renal): 1.84 µM | TGI (CAKI-1 renal): 3.98 µM | GI50 (MDA-MB-231 breast): 1.97 µM | TGI (MDA-MB-231 breast): 3.66 µM | GI50 (HL-60(TB) leukemia): 2.1 µM | TGI (HL-60(TB) leukemia): 5.11 µM | GI50 (RXF 393 renal): 1.97 µM | TGI (RXF 393 renal): 3.72 µM | GI50 (NCI-H226 lung): 21.7 µM | TGI (NCI-H226 lung): 68.5 µM | GI50 (SF-539 CNS): 1.76 µM | TGI (SF-539 CNS): 3.34 µM | GI50 (SK-OV-3 ovarian): 3.32 µM | TGI (SK-OV-3 ovarian): 12.5 µM | GI50 (K-562 leukemia): 2.72 µM | TGI (K-562 leukemia): 7.52 µM | GI50 (HT29 colon): 1.74 µM | TGI (HT29 colon): 3.34 µM | GI50 (MDA-MB-468 breast): 1.92 µM | TGI (MDA-MB-468 breast): 4.11 µM | GI50 (CCRF-CEM leukemia): 3.19 µM | TGI (CCRF-CEM leukemia): 24.2 µM | GI50 (HOP-62 NSCLC): 1.96 µM | TGI (HOP-62 NSCLC): 4.82 µM | GI50 (HOP-92 NSCLC): 2.06 µM | TGI (HOP-92 NSCLC): 4.2 µM | GI50 (NCI-H23 lung): 2.08 µM | TGI (NCI-H23 lung): 4.78 µM | GI50 (DU-145 prostate): 4.15 µM | TGI (DU-145 prostate): 22.3 µM | GI50 (HCC-2998 colon): 1.78 µM | TGI (HCC-2998 colon): 3.32 µM | GI50 (T-47D breast): 2.63 µM | TGI (T-47D breast): 8.91 µM | GI50 (UO-31 renal): 1.62 µM | TGI (UO-31 renal): 3.06 µM | GI50 (786-0 renal): 1.51 µM | TGI (786-0 renal): 2.92 µM | GI50 (UACC-62 melanoma): 1.68 µM | TGI (UACC-62 melanoma): 3.09 µM | GI50 (MDA-MB-435): 1.78 µM | TGI (MDA-MB-435): 3.33 µM | GI50 (NCI/ADR-RES ovarian): 2.41 µM | TGI (NCI/ADR-RES ovarian): 6.26 µM | GI50 (U251 CNS): 1.82 µM | TGI (U251 CNS): 3.51 µM | GI50 (HCT-15 colon): 1.79 µM | TGI (HCT-15 colon): 4.02 µM | GI50 (SNB-75 CNS): 12.9 µM | TGI (SNB-75 CNS): 28.6 µM | GI50 (A549 NSCLC): 2.17 µM | TGI (A549 NSCLC): 6.44 µM | GI50 (MCF7 breast): 1.77 µM | TGI (MCF7 breast): 3.95 µM | GI50 (HS 578T breast): 2.39 µM | TGI (HS 578T breast): 6.45 µM
